Experimental data reported in PubChem BioAssay (NCI).
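Results reflect a 48-hour exposure of cells in 96-well plates to compound at five concentrations. At the TGI there is no net growth.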

Assays:
Assay in all cases: inhibition of tumour cell growth, NCI panel, 48 h
OVCAR-3 ovarian = test system: OVCAR-3 ovarian
EKVX NSCLC = test system: EKVX NSCLC
HCT-116 colon = test system: HCT-116 colon
T-47D breast = test system: T-47D breast
MDA-N = test system: MDA-N
LOX IMVI melanoma = test system: LOX IMVI melanoma
MALME-3M melanoma = test system: MALME-3M melanoma
RXF 393 renal = test system: RXF 393 renal
A549 NSCLC = test system: A549 NSCLC
OVCAR-8 ovarian = test system: OVCAR-8 ovarian
SF-268 CNS = test system: SF-268 CNS
COLO 205 colon = test system: COLO 205 colon
NCI-H226 lung = test system: NCI-H226 lung
BT-549 breast = test system: BT-549 breast
UO-31 renal = test system: UO-31 renal
MOLT-4 leukemia = test system: MOLT-4 leukemia
U251 CNS = test system: U251 CNS
OVCAR-5 ovarian = test system: OVCAR-5 ovarian
MCF7 breast = test system: MCF7 breast
K-562 leukemia = test system: K-562 leukemia
NCI-H23 lung = test system: NCI-H23 lung
HOP-92 NSCLC = test system: HOP-92 NSCLC
RPMI-8226 leukemia = test system: RPMI-8226 leukemia
MDA-MB-435 = test system: MDA-MB-435
CAKI-1 renal = test system: CAKI-1 renal
HCT-15 colon = test system: HCT-15 colon
SW-620 colon = test system: SW-620 colon
SK-MEL-2 melanoma = test system: SK-MEL-2 melanoma
M14 melanoma = test system: M14 melanoma
HT29 colon = test system: HT29 colon
NCI-H522 lung = test system: NCI-H522 lung
SF-539 CNS = test system: SF-539 CNS
HS 578T breast = test system: HS 578T breast
DU-145 prostate = test system: DU-145 prostate
IGROV1 ovarian = test system: IGROV1 ovarian
HL-60(TB) leukemia = test system: HL-60(TB) leukemia
SK-OV-3 ovarian = test system: SK-OV-3 ovarian
SNB-19 CNS = test system: SNB-19 CNS
HCC-2998 colon = test system: HCC-2998 colon
SR leukemia = test system: SR leukemia
NCI/ADR-RES ovarian = test system: NCI/ADR-RES ovarian
PC-3 prostate = test system: PC-3 prostate
KM12 colon = test system: KM12 colon
786-0 renal = test system: 786-0 renal
SF-295 CNS = test system: SF-295 CNS
SK-MEL-28 melanoma = test system: SK-MEL-28 melanoma
SN12C renal = test system: SN12C renal
UACC-257 melanoma = test system: UACC-257 melanoma
HOP-62 NSCLC = test system: HOP-62 NSCLC
CCRF-CEM leukemia = test system: CCRF-CEM leukemia
OVCAR-4 ovarian = test system: OVCAR-4 ovarian
SNB-75 CNS = test system: SNB-75 CNS
SK-MEL-5 melanoma = test system: SK-MEL-5 melanoma
ACHN renal = test system: ACHN renal
TK-10 renal = test system: TK-10 renal
UACC-62 melanoma = test system: UACC-62 melanoma
MDA-MB-231 breast = test system: MDA-MB-231 breast
NCI-H460 lung = test system: NCI-H460 lung
A498 renal = test system: A498 renal

## CC1(C)CN=C(Nc2ccc(F)c(Cl)c2)S1
OVCAR-3 ovarian
  TGI: > 100 µM
EKVX NSCLC
  TGI: > 100 µM
HCT-116 colon
  TGI: > 100 µM
T-47D breast
  TGI: > 100 µM
MDA-N
  TGI: > 100 µM
LOX IMVI melanoma
  TGI: > 100 µM
MALME-3M melanoma
  TGI: > 100 µM
RXF 393 renal
  TGI: > 100 µM
A549 NSCLC
  TGI: > 100 µM
OVCAR-8 ovarian
  TGI: > 100 µM
SF-268 CNS
  TGI: > 100 µM
COLO 205 colon
  TGI: > 100 µM
NCI-H226 lung
  TGI: > 100 µM
BT-549 breast
  TGI: > 100 µM
UO-31 renal
  TGI: > 100 µM
MOLT-4 leukemia
  TGI: > 100 µM
U251 CNS
  TGI: > 100 µM
OVCAR-5 ovarian
  TGI: > 100 µM
MCF7 breast
  TGI: > 100 µM
K-562 leukemia
  TGI: > 100 µM
NCI-H23 lung
  TGI: > 100 µM
HOP-92 NSCLC
  TGI: > 100 µM
RPMI-8226 leukemia
  TGI: > 100 µM
MDA-MB-435
  TGI: > 100 µM
CAKI-1 renal
  TGI: > 100 µM
HCT-15 colon
  TGI: > 100 µM
SW-620 colon
  TGI: > 100 µM
SK-MEL-2 melanoma
  TGI: > 100 µM
M14 melanoma
  TGI: > 100 µM
HT29 colon
  TGI: > 100 µM
NCI-H522 lung
  TGI: > 100 µM
SF-539 CNS
  TGI: > 100 µM
HS 578T breast
  TGI: > 100 µM
DU-145 prostate
  TGI: > 100 µM
IGROV1 ovarian
  TGI: > 100 µM
HL-60(TB) leukemia
  TGI: > 100 µM
SK-OV-3 ovarian
  TGI: > 100 µM
SNB-19 CNS
  TGI: > 100 µM
HCC-2998 colon
  TGI: > 100 µM
SR leukemia
  TGI: > 100 µM
NCI/ADR-RES ovarian
  TGI: > 100 µM
PC-3 prostate
  TGI: > 100 µM
KM12 colon
  TGI: > 100 µM
786-0 renal
  TGI: > 100 µM
SF-295 CNS
  TGI: > 100 µM
SK-MEL-28 melanoma
  TGI: > 100 µM
SN12C renal
  TGI: > 100 µM
UACC-257 melanoma
  TGI: > 100 µM
HOP-62 NSCLC
  TGI: > 100 µM
CCRF-CEM leukemia
  TGI: > 100 µM
OVCAR-4 ovarian
  TGI: > 100 µM
SNB-75 CNS
  TGI: > 100 µM
SK-MEL-5 melanoma
  TGI: > 100 µM
ACHN renal
  TGI: > 100 µM
TK-10 renal
  TGI: > 100 µM
UACC-62 melanoma
  TGI: > 100 µM

## O=C(c1cccc2cc(O)ccc12)c1cn(CCN2CCOCC2)c2ccccc12
EKVX NSCLC
  TGI: 64.8 µM
HCT-116 colon
  TGI: 38.9 µM
T-47D breast
  TGI: > 100 µM
MDA-N
  TGI: 58.3 µM
LOX IMVI melanoma
  TGI: 39.1 µM
MALME-3M melanoma
  TGI: 56.3 µM
RXF 393 renal
  TGI: 43.6 µM
OVCAR-8 ovarian
  TGI: > 100 µM
SF-268 CNS
  TGI: > 100 µM
COLO 205 colon
  TGI: 78.8 µM
NCI-H226 lung
  TGI: 87.3 µM
BT-549 breast
  TGI: 56.9 µM
UO-31 renal
  TGI: 71.4 µM
MOLT-4 leukemia
  TGI: 62.9 µM
OVCAR-5 ovarian
  TGI: 73.5 µM
MCF7 breast
  TGI: 66.8 µM
K-562 leukemia
  TGI: > 100 µM
NCI-H23 lung
  TGI: > 100 µM
HOP-92 NSCLC
  TGI: 71.6 µM
RPMI-8226 leukemia
  TGI: 68.8 µM
CAKI-1 renal
  TGI: > 100 µM
SW-620 colon
  TGI: > 100 µM
SK-MEL-2 melanoma
  TGI: 25 µM
M14 melanoma
  TGI: 36.9 µM
HT29 colon
  TGI: 37.1 µM
NCI-H522 lung
  TGI: 61.4 µM
SF-539 CNS
  TGI: > 100 µM
DU-145 prostate
  TGI: 73 µM
IGROV1 ovarian
  TGI: 43.4 µM
HL-60(TB) leukemia
  TGI: 55.5 µM
SNB-19 CNS
  TGI: > 100 µM
SR leukemia
  TGI: > 100 µM
PC-3 prostate
  TGI: 35.5 µM
786-0 renal
  TGI: 42.3 µM
SK-MEL-28 melanoma
  TGI: > 100 µM
MDA-MB-231 breast
  TGI: 45.3 µM
SN12C renal
  TGI: > 100 µM
UACC-257 melanoma
  TGI: 56 µM
HOP-62 NSCLC
  TGI: 46.1 µM
CCRF-CEM leukemia
  TGI: 34.4 µM
SK-MEL-5 melanoma
  TGI: 55.3 µM
ACHN renal
  TGI: > 100 µM
TK-10 renal
  TGI: 50.9 µM
UACC-62 melanoma
  TGI: 38.5 µM

## O=C1/C(=C\c2cccc(Oc3ccccc3)c2)SC(c2ccccc2)N1c1cccc(Cl)c1 (stereo not given)
OVCAR-3 ovarian
  TGI: > 100 µM
EKVX NSCLC
  TGI: > 100 µM
HCT-116 colon
  TGI: > 100 µM
NCI-H460 lung
  TGI: > 100 µM
T-47D breast
  TGI: > 100 µM
MDA-N
  TGI: > 100 µM
LOX IMVI melanoma
  TGI: > 100 µM
MALME-3M melanoma
  TGI: > 100 µM
RXF 393 renal
  TGI: > 100 µM
A549 NSCLC
  TGI: > 100 µM
OVCAR-8 ovarian
  TGI: > 100 µM
SF-268 CNS
  TGI: > 100 µM
COLO 205 colon
  TGI: > 100 µM
NCI-H226 lung
  TGI: > 100 µM
BT-549 breast
  TGI: > 100 µM
UO-31 renal
  TGI: > 100 µM
MOLT-4 leukemia
  TGI: > 100 µM
U251 CNS
  TGI: > 100 µM
OVCAR-5 ovarian
  TGI: > 100 µM
K-562 leukemia
  TGI: > 100 µM
NCI-H23 lung
  TGI: > 100 µM
HOP-92 NSCLC
  TGI: > 100 µM
RPMI-8226 leukemia
  TGI: > 100 µM
MDA-MB-435
  TGI: > 100 µM
CAKI-1 renal
  TGI: > 100 µM
HCT-15 colon
  TGI: > 100 µM
SW-620 colon
  TGI: > 100 µM
SK-MEL-2 melanoma
  TGI: > 100 µM
M14 melanoma
  TGI: > 100 µM
HT29 colon
  TGI: > 100 µM
HS 578T breast
  TGI: > 100 µM
DU-145 prostate
  TGI: > 100 µM
SK-OV-3 ovarian
  TGI: > 100 µM
SNB-19 CNS
  TGI: > 100 µM
A498 renal
  TGI: > 100 µM
HCC-2998 colon
  TGI: > 100 µM
NCI/ADR-RES ovarian
  TGI: > 100 µM
KM12 colon
  TGI: > 100 µM
786-0 renal
  TGI: > 100 µM
SF-295 CNS
  TGI: > 100 µM
SK-MEL-28 melanoma
  TGI: > 100 µM
MDA-MB-231 breast
  TGI: > 100 µM
SN12C renal
  TGI: > 100 µM
UACC-257 melanoma
  TGI: > 100 µM
HOP-62 NSCLC
  TGI: > 100 µM
OVCAR-4 ovarian
  TGI: > 100 µM
SK-MEL-5 melanoma
  TGI: > 100 µM
ACHN renal
  TGI: > 100 µM
TK-10 renal
  TGI: > 100 µM
UACC-62 melanoma
  TGI: > 100 µM

## COc1ccc2c(c1)OC1c3ccccc3OCC21 (stereo not given)
OVCAR-3 ovarian
  TGI: > 100 µM
EKVX NSCLC
  TGI: > 100 µM
HCT-116 colon
  TGI: > 100 µM
NCI-H460 lung
  TGI: > 100 µM
T-47D breast
  TGI: > 100 µM
MDA-N
  TGI: > 100 µM
LOX IMVI melanoma
  TGI: > 100 µM
RXF 393 renal
  TGI: > 100 µM
OVCAR-8 ovarian
  TGI: > 100 µM
SF-268 CNS
  TGI: > 100 µM
COLO 205 colon
  TGI: > 100 µM
NCI-H226 lung
  TGI: > 100 µM
BT-549 breast
  TGI: > 100 µM
UO-31 renal
  TGI: > 100 µM
MOLT-4 leukemia
  TGI: 81.9 µM
U251 CNS
  TGI: > 100 µM
OVCAR-5 ovarian
  TGI: > 100 µM
MCF7 breast
  TGI: > 100 µM
K-562 leukemia
  TGI: > 100 µM
NCI-H23 lung
  TGI: > 100 µM
HOP-92 NSCLC
  TGI: > 100 µM
RPMI-8226 leukemia
  TGI: > 100 µM
MDA-MB-435
  TGI: > 100 µM
CAKI-1 renal
  TGI: > 100 µM
HCT-15 colon
  TGI: > 100 µM
SW-620 colon
  TGI: > 100 µM
SK-MEL-2 melanoma
  TGI: > 100 µM
M14 melanoma
  TGI: > 100 µM
HT29 colon
  TGI: 93.9 µM
SF-539 CNS
  TGI: > 100 µM
HS 578T breast
  TGI: > 100 µM
DU-145 prostate
  TGI: > 100 µM
IGROV1 ovarian
  TGI: > 100 µM
HL-60(TB) leukemia
  TGI: > 100 µM
SK-OV-3 ovarian
  TGI: > 100 µM
SNB-19 CNS
  TGI: > 100 µM
A498 renal
  TGI: > 100 µM
HCC-2998 colon
  TGI: > 100 µM
NCI/ADR-RES ovarian
  TGI: > 100 µM
PC-3 prostate
  TGI: > 100 µM
KM12 colon
  TGI: > 100 µM
786-0 renal
  TGI: > 100 µM
SF-295 CNS
  TGI: > 100 µM
SK-MEL-28 melanoma
  TGI: > 100 µM
MDA-MB-231 breast
  TGI: > 100 µM
SN12C renal
  TGI: > 100 µM
UACC-257 melanoma
  TGI: > 100 µM
HOP-62 NSCLC
  TGI: > 100 µM
CCRF-CEM leukemia
  TGI: > 100 µM
OVCAR-4 ovarian
  TGI: > 100 µM
SNB-75 CNS
  TGI: > 100 µM
SK-MEL-5 melanoma
  TGI: > 100 µM
ACHN renal
  TGI: > 100 µM
TK-10 renal
  TGI: > 100 µM
UACC-62 melanoma
  TGI: > 100 µM
